Source: ChEMBL document CHEMBL4024791, “Identification of Morpholino-2H-pyrido[3,2-b][1,4]oxazin-3(4H)-ones as Nonsteroidal Mineralocorticoid Antagonists” (J Med Chem, 2018)

Tests used:
[1] = AUC in Wistar rat at 30 mg/kg, po administered as single dose measured up to 8 hrs post dose by LC-MS analysis; assay type: ADME, organism-based; parameters: time < 8 hr, dose 30 mg/kg, route oral; conditions: in vivo
Androgen receptor [2] = molecular target: T1, Androgen receptor (Homo sapiens, UniProt P10275); experiment: Antagonist activity at human GAL4-DBD fused AR ligand binding domain transfected in human Huh7 cells co-expressing GAL4-RE-Luc assessed as reduction in dihydrotestosterone-induced luciferase activity after 16 hrs by luciferase reporter gene assay; assay type: cell-based
T1 sequence (P10275 whole entry): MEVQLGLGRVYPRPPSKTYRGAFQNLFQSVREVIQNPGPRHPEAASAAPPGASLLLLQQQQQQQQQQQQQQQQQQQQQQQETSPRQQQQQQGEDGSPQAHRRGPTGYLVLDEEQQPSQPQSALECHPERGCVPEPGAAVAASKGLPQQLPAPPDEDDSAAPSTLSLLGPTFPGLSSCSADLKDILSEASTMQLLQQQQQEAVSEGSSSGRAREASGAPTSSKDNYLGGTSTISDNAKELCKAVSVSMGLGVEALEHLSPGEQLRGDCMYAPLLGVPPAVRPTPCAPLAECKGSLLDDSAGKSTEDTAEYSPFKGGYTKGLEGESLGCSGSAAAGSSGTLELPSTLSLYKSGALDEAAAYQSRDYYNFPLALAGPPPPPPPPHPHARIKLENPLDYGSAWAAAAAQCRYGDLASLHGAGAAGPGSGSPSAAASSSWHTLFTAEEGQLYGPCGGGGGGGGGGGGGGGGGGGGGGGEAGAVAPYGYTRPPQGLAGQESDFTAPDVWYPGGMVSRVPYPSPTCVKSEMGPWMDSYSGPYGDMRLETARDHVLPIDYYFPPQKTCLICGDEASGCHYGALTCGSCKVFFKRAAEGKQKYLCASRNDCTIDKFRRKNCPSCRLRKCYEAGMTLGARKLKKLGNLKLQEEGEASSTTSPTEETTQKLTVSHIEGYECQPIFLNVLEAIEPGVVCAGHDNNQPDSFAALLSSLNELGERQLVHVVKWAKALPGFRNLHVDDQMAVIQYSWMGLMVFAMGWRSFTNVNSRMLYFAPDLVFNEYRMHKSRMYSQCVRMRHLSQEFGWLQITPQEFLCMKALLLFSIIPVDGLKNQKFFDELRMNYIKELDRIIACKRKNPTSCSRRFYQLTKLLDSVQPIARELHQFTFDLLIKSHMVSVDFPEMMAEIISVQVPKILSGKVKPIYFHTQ

CYP3A4 = CYP3A4 (Homo sapiens, UniProt P08684); experiment: Inhibition of CYP3A4 (unknown origin) at 3 uM; assay type: ADME
Chain of CYP3A4 (P08684 whole entry): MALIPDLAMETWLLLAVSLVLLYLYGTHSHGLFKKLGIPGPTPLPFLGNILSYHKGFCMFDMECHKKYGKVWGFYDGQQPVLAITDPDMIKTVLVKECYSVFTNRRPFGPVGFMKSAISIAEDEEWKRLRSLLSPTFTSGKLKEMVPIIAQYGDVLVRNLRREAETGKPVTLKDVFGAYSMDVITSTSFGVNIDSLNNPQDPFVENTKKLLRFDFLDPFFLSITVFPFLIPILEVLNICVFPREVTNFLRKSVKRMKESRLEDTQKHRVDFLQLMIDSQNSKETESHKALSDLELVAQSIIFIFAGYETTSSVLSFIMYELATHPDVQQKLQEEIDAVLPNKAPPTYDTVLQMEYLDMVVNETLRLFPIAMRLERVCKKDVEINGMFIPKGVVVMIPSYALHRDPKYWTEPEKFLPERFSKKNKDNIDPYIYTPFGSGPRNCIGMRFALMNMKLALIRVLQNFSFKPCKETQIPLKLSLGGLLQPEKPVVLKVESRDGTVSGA

[3] = Distribution coefficient, log D of the compound; assay type: physicochemical; conditions: octanol/water
Androgen receptor [4] = molecular target: T1, Androgen receptor; experiment: Binding affinity to AR (unknown origin); assay type: ADME
Progesterone receptor = molecular target: T2, Progesterone receptor (Homo sapiens, UniProt P06401); experiment: Displacement of [3H]-progesterone from recombinant human His-tagged PR-b after 4 hrs by liquid scintillation counting
T2 sequence (P06401 whole entry): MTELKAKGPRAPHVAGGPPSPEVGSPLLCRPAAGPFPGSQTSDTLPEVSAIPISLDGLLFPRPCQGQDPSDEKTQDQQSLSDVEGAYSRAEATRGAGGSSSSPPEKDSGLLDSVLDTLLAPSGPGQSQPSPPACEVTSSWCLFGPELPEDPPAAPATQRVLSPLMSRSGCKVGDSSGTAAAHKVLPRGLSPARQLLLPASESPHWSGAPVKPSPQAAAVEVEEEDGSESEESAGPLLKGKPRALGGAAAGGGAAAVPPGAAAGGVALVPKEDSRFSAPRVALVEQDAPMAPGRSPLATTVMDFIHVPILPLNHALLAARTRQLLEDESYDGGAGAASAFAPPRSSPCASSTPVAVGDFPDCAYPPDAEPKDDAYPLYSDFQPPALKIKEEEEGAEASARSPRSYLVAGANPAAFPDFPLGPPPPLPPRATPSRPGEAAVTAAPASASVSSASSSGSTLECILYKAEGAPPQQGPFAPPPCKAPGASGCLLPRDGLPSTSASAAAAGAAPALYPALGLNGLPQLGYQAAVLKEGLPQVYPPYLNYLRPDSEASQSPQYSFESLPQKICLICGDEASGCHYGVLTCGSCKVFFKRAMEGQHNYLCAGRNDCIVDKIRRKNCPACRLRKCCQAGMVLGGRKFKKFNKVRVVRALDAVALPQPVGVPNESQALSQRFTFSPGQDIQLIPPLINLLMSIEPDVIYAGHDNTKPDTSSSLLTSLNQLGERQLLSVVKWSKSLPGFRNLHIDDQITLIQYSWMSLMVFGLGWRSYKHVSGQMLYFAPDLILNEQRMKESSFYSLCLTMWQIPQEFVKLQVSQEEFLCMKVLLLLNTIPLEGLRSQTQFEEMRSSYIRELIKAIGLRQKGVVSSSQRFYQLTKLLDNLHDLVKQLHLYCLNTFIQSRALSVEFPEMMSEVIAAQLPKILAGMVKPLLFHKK

MDR1 (P-gp) = experiment: Apparent permeability across apical to basolateral side in MDCK cells expressing human MDR1; assay type: ADME, cell-based, Canis lupus familiaris; conditions: dog
[5] = Oral bioavailability in rat; assay type: ADME, organism-based; conditions: in vivo
[6] = Apparent permeability in RRCK cells; assay type: ADME, cell-based, Canis lupus familiaris, MDCKII-LE; conditions: dog, MDCK
[7] = Intrinsic clearance in rat liver microsomes
hERG (KCNH2) = hERG (KCNH2) (Homo sapiens, UniProt Q12809); experiment: Displacement of [3H]-dofetilide from human ERG at 10 uM; conditions: probe [3H]-dofetilide
Chain of hERG (KCNH2) (Q12809 whole entry): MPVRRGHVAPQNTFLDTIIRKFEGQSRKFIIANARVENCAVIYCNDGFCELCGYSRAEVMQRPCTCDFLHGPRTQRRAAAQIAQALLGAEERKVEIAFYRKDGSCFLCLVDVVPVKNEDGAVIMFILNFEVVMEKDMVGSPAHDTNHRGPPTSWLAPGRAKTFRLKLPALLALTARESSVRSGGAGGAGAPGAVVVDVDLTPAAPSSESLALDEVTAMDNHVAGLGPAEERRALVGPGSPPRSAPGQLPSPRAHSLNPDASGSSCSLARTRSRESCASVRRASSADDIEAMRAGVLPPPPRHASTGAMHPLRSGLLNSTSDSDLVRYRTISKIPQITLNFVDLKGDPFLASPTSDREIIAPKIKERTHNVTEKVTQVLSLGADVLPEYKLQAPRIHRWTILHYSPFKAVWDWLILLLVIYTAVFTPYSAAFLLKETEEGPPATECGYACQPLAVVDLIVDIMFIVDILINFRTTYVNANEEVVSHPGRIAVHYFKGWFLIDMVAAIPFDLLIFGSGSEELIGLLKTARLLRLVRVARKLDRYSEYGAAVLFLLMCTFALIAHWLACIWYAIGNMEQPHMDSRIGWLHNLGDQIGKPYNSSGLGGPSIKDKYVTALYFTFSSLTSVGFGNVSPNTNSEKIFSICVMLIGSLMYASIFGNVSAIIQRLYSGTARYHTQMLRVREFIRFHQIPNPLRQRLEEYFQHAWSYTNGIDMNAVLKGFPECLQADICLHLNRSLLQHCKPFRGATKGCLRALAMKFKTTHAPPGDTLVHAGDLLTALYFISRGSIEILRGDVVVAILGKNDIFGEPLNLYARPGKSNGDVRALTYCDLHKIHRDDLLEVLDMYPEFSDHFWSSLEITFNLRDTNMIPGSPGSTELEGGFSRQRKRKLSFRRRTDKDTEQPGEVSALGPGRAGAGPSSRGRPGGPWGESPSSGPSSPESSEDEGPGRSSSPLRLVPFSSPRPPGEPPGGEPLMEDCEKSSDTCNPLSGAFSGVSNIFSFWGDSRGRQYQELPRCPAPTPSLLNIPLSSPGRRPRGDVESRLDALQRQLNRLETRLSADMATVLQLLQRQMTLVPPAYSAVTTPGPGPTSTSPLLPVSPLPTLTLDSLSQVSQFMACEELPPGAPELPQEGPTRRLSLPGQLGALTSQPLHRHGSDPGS

Row | SMILES | AUC at 8 h [1] [µg·h/mL] | IC50 (Androgen receptor [2]) [µM] | inhibition at 3 µM (CYP3A4) [%] | logD [3] | IC50 (Androgen receptor [4]) [µM] | IC50 (Progesterone receptor) [µM] | Papp A→B (MDR1 (P-gp)) [nm/s] | bioavailability [5] [%] | Papp [6] [nm/s] | microsomal CLint [7] [µL/min/mg] | inhibition at 10 µM (hERG (KCNH2)) [%]
1 | C[C@@H]1CN(c2ccc3c(n2)NC(=O)CO3)[C@H](c2ccccc2)CO1 | 2.85 | > 10 | < 20 | 2.8 | > 10 | > 10 | 249 | 4 to 16 | – | – | –
2 | O=C1COc2ccc(N3CCOC[C@H]3c3ccccc3)cc2N1 | – | > 10 | < 10 | 2.7 | – | – | – | – | 293 | 223 | 5
